Calls of active or inactive are those of the source. The calls are words filed in the database; no cut-off is given here.
Key:
THP-1 = assay: Anti-inflammatory activity in LPS-induced human THP-1 cells assessed as inhibition of IL-6 production at 10 uM by ELISA relative to control; type: functional
J774.A1 [1] = assay: Cytotoxicity against mouse J774.A1 cells at 10 uM by MTT assay; type: toxicity, cell-based; conditions: j774.a1, 10 µM
Peritoneal macrophage = assay: Antiinflammatory activity in LPS-induced mouse Peritoneal macrophage cells assessed as inhibition of IFN-beta mRNA level at 1.25 to 5 uM by RT-PCR analysis; type: functional, cell-based; conditions: dose 1.25-5 µM
J774.A1 [2] = assay: Anti-inflammatory activity in LPS-induced mouse J774.A1 cells assessed as inhibition of IL-6 production at 10 uM by ELISA; type: functional, cell-based
J774.A1 [3] = assay: Anti-inflammatory activity in LPS-induced mouse J774.A1 cells assessed as inhibition of TNF-alpha production at 10 uM by ELISA; type: functional, cell-based
[4] = target: Myeloid differentiation primary response protein MyD88 (Homo sapiens, UniProt Q99836); assay: Binding affinity to MYD88 (unknown origin) assessed as dissociation constant by biolayer interferometry
Myeloid differentiation primary response protein MyD88, sequence (Q99836 whole entry): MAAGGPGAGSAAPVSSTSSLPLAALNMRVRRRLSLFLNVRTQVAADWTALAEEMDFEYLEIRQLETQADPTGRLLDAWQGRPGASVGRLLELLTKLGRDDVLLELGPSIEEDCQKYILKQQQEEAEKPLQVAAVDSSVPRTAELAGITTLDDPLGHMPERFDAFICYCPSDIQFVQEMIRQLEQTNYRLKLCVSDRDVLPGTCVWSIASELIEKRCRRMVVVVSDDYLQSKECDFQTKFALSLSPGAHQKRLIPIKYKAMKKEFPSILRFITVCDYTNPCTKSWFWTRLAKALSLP

J774.A1 [5] = assay: Cytotoxicity against mouse J774.A1 cells at 3 to 12 uM by MTT assay; type: toxicity, cell-based; conditions: j774.a1, 12 µM, dose 3-12 µM
J774.A1 [6] = assay: Anti-inflammatory activity in LPS-induced mouse J774.A1 cells assessed as inhibition of IL-6 production by ELISA; type: functional, cell-based
J774.A1 [7] = assay: Anti-inflammatory activity in LPS-induced mouse J774.A1 cells assessed as inhibition of TNF-alpha production by ELISA; type: functional, cell-based
[8] = target: Toll-like receptor 4/Ly96 (Mus musculus) (UniProt Q9QUK6+Q9JHF9); assay: Inhibition of MD2/TLR4 protein-protein interaction in LPS-induced mouse J774.A1 cells at 20 uM incubated for 2 hrs by coimmunoprecipitation analysis; type: cell-based
[9] = target: TLR4-MyD88 (Mus musculus) (UniProt Q9QUK6+P22366); assay: Inhibition of MYD88/TLR4 protein-protein interaction in LPS-induced mouse J774.A1 cells at 20 uM incubated for 2 hrs by coimmunoprecipitation analysis; type: cell-based
TLR4-MyD88 (Mus musculus), sequence (P22366 whole entry, looked up): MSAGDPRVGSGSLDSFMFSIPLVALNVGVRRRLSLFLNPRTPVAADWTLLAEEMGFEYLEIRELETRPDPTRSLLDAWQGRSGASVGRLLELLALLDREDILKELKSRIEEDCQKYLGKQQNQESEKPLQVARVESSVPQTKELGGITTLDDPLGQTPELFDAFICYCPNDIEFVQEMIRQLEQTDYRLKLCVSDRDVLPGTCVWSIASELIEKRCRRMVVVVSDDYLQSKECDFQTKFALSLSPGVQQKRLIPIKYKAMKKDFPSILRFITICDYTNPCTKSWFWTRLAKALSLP
TLR4-MyD88 (Mus musculus), sequence (Q9QUK6 whole entry, looked up): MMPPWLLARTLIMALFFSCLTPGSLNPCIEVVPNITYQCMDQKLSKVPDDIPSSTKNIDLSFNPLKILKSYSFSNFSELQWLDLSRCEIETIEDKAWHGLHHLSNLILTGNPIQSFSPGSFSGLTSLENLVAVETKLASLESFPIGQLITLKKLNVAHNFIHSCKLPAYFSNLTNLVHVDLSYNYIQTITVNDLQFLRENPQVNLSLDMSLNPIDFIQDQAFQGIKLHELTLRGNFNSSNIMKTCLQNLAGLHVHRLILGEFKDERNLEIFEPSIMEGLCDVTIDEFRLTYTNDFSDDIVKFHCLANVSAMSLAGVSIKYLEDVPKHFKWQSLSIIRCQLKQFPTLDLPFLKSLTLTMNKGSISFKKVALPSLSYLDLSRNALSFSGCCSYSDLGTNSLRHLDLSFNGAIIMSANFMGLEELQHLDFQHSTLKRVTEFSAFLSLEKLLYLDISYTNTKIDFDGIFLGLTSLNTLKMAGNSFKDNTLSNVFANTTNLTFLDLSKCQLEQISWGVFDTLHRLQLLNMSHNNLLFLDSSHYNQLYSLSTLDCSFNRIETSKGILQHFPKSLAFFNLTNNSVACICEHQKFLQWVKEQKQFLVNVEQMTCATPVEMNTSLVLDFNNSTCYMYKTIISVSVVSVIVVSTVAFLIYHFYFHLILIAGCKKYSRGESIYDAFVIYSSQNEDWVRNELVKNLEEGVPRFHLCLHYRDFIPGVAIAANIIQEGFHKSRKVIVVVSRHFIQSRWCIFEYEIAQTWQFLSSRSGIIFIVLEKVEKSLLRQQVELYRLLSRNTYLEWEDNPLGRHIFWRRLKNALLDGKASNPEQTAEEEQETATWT

J774.A1 [10] = assay: Inhibition of NF-kappaB signalling pathway in LPS-induced mouse J774.A1 cells assessed as upregulation of IkappaB-alpha expression by Western blotting analysis; type: cell-based
J774.A1 [11] = assay: Inhibition of NF-kappaB signalling pathway in LPS-induced mouse J774.A1 cells assessed as downregulation of p65 phosphorylation by Western blotting analysis; type: cell-based
[12] = Cmax in Sprague-Dawley rat at 1 mg/kg,iv administration measured upto 24 hrs by LC-MS/MS analysis; type: ADME, organism-based; conditions: in vivo
[13] = AUC (0 to t) in Sprague-Dawley rat at 1 mg/kg,iv administration measured upto 24 hrs by LC-MS/MS analysis; type: ADME, organism-based; conditions: in vivo
[14] = AUC (0 to infinity) in Sprague-Dawley rat at 1 mg/kg,iv administration measured upto 24 hrs by LC-MS/MS analysis; type: ADME, organism-based; conditions: in vivo
[15] = Tmax in Sprague-Dawley rat at 1 mg/kg,iv administration measured upto 24 hrs by LC-MS/MS analysis; type: ADME, organism-based; conditions: in vivo
[16] = Half life in Sprague-Dawley rat at 1 mg/kg,iv administration measured upto 24 hrs by LC-MS/MS analysis; type: ADME, organism-based; conditions: in vivo
[17] = Cmax in Sprague-Dawley rat at 50 mg/kg,po administration measured upto 24 hrs by LC-MS/MS analysis; type: ADME, organism-based; conditions: in vivo
[18] = AUC (0 to t) in Sprague-Dawley rat at 50 mg/kg,po administration measured upto 24 hrs by LC-MS/MS analysis; type: ADME, organism-based; conditions: in vivo
[19] = Tmax in Sprague-Dawley rat at 50 mg/kg,po administration measured upto 24 hrs by LC-MS/MS analysis; type: ADME, organism-based; conditions: in vivo
[20] = Oral bioavailability in Sprague-Dawley rat at 50 mg/kg administration measured upto 24 hrs by LC-MS/MS analysis; type: ADME, organism-based; conditions: in vivo
[21] = Stability of compound in simulated gastric fluid measured upto 12 hrs; type: physicochemical; conditions: simulated gi fluid
[22] = Stability of compound in simulated intestinal fluid measured upto 12 hrs; type: physicochemical; conditions: simulated gi fluid
[23] = Stability of compound in enzyme free simulated gastric fluid measured upto 12 hrs; type: physicochemical; conditions: simulated gi fluid
[24] = Stability of compound in enzyme free simulated intestinal fluid measured upto 12 hrs; type: physicochemical; conditions: simulated gi fluid
[25] = Stability of compound in rat serum measured after 6 hrs; type: ADME, cell-free
Mus musculus [26] = assay: Antiinflammatory activity against LPS induced acute lung injury C57BL/6 mouse model assessed as reduction in histopathological change in lung at 20 mg/kg,po administrated with compound for 30 mins followed by LPS treatment and measured after 6 hrs by H and E staining based analysis; type: functional, organism-based; conditions: time 6.5 hrs
Mus musculus [27] = assay: Antiinflammatory activity against LPS induced acute lung injury C57BL/6 mouse model assessed as reduction in of leukocytes in alveolar region at 20 mg/kg,po administrated with compound for 30 mins followed by LPS treatment and measured after 6 hrs by immunohistochemical staining based analysis; type: functional, organism-based
[28] = Drug concentration in Sprague-Dawley rat serum at 15 mg/kg,iv administration measured upto 24 hrs by LC-MS/MS analysis; type: ADME, organism-based; conditions: read-out: Ct

Cc1ccccc1OCC(O)CN1CCN(CC(O)C(C)c2ccccc2)CC1 (stereo not given)
inhibition at 10 µM (THP-1): 21.5% | Activity (J774.A1 [1]): Non-toxic

OC(COc1ccc(F)cc1)CN1CCN(Cc2cc3ccccc3[nH]2)CC1 (stereo not given)
inhibition at 10 µM (THP-1): 76.3% | Activity (J774.A1 [1]): Non-toxic

CC(c1ccccc1)C(O)CN1CCN(CC(O)COc2ccc(C(C)(C)C)cc2)CC1 (stereo not given)
inhibition at 10 µM (THP-1): 46.4% | Activity (J774.A1 [1]): Toxic

COc1ccc(C(=O)/C=C/c2cccc(OC)c2OC)cc1
Activity (Peritoneal macrophage): Active

COc1ccc(OCC(O)CN2CCN(Cc3cc4ccccc4[nH]3)CC2)cc1 (stereo not given)
inhibition at 10 µM (THP-1): 69% | Activity (J774.A1 [1]): Non-toxic

Cc1c(CN2CCN(C3CCNC3)CC2)[nH]c2ccc(F)cc12 (stereo not given)
inhibition at 10 µM (THP-1): 71.7% | inhibition (J774.A1 [2]): Active | inhibition (J774.A1 [3]): Active | Activity (J774.A1 [1]): Non-toxic | Kd [4]: 276 µM

CC(c1cccc(F)c1)C(O)CN1CCN(CC(O)COc2ccc(C(C)(C)C)cc2)CC1 (stereo not given)
inhibition at 10 µM (THP-1): 44.3% | Activity (J774.A1 [1]): Non-toxic

OC(COc1ccc(Cl)cc1)CN1CCN(Cc2cc3ccccc3[nH]2)CC1 (stereo not given)
inhibition at 10 µM (THP-1): 85.3% | Activity (J774.A1 [1]): Non-toxic

CC(c1ccccc1)C(O)CN1CCN(CC(O)COc2ccc(Br)cc2)CC1 (stereo not given)
inhibition at 10 µM (THP-1): 47.9% | Activity (J774.A1 [1]): Non-toxic

CC(c1cccc(F)c1)C(O)CN1CCN(CC(O)COc2ccc(F)cc2)CC1 (stereo not given)
inhibition at 10 µM (THP-1): 42.1% | Activity (J774.A1 [1]): Non-toxic

CC(C)(C)c1ccc(OCC(O)CN2CCN(Cc3cc4ccccc4[nH]3)CC2)cc1 (stereo not given)
inhibition at 10 µM (THP-1): 5.83% | Activity (J774.A1 [1]): Toxic

OC(COCc1ccccc1)CN1CCN(Cc2cc3ccccc3[nH]2)CC1 (stereo not given)
inhibition at 10 µM (THP-1): 72.7% | Activity (J774.A1 [1]): Non-toxic

OC(COc1ccccc1)CN1CCN(Cc2cc3ccccc3[nH]2)CC1 (stereo not given)
inhibition at 10 µM (THP-1): 74% | Activity (J774.A1 [1]): Non-toxic

CC(c1cccc(F)c1)C(O)CN1CCN(CC(O)COc2ccc(Cl)cc2)CC1 (stereo not given)
inhibition at 10 µM (THP-1): 55.5% | Activity (J774.A1 [1]): Non-toxic

CC(c1cccc(F)c1)C(O)CN1CCN(CC(O)COc2ccccc2)CC1 (stereo not given)
inhibition at 10 µM (THP-1): 31.8% | Activity (J774.A1 [1]): Non-toxic

COc1ccc(OCC(O)CN2CCN(CC(O)C(C)c3ccccc3)CC2)cc1 (stereo not given)
inhibition at 10 µM (THP-1): 46.8% | Activity (J774.A1 [1]): Non-toxic

CC(c1cccc(F)c1)C(O)CN1CCN(CC(O)COc2ccc(Br)cc2)CC1 (stereo not given)
inhibition at 10 µM (THP-1): 43.1% | Activity (J774.A1 [1]): Non-toxic

O[C@@H](COc1ccc(Br)cc1)CN1CCN(Cc2cc3ccccc3[nH]2)CC1
Activity (J774.A1 [5]): Non-toxic | IC50 (J774.A1 [6]): 0.82 µM | IC50 (J774.A1 [7]): 3.75 µM | inhibition [8]: inactive | inhibition [9]: Active | inhibition (J774.A1 [10]): Active | inhibition (J774.A1 [11]): Active

COc1ccccc1OCC(O)CN1CCN(Cc2cc3ccccc3[nH]2)CC1 (stereo not given)
inhibition at 10 µM (THP-1): 62.6% | Activity (J774.A1 [1]): Non-toxic

CC(c1cccc(F)c1)C(O)CN1CCN(CC(O)COCc2ccccc2)CC1 (stereo not given)
inhibition at 10 µM (THP-1): 30.4% | Activity (J774.A1 [1]): Non-toxic

CC(c1ccccc1)C(O)CN1CCN(CC(O)COc2ccccc2)CC1 (stereo not given)
inhibition at 10 µM (THP-1): 30.5% | Activity (J774.A1 [1]): Non-toxic

Cc1ccccc1OCC(O)CN1CCN(Cc2cc3ccccc3[nH]2)CC1 (stereo not given)
inhibition at 10 µM (THP-1): 75.4% | Activity (J774.A1 [1]): Non-toxic

COc1ccc(-c2csc(NC(=O)CCN3CCN(Cc4cccc([N+](=O)[O-])c4)CC3)n2)cc1OC
Cmax [12]: 297 ng/mL | AUC(0-t) at 24 h [13]: 79.1 ng·h/mL | AUC(0-inf) [14]: 79.9 ng·h/mL | Tmax [15]: 4.8 min | half-life [16]: 4.8 min | Cmax [17]: 3.99 ng/mL | AUC(0-t) at 24 h [18]: 4.38 ng·h/mL | Tmax [19]: 15 min | bioavailability [20]: 0.13% | Stability [21]: Stable | Stability [22]: Stable | Stability [23]: Stable | Stability [24]: Stable | Stability [25]: Unstable

CC(c1ccccc1)C(O)CN1CCN(CC(O)COc2ccc(F)cc2)CC1 (stereo not given)
inhibition at 10 µM (THP-1): 4.5% | Activity (J774.A1 [1]): Non-toxic

CC(c1ccccc1)C(O)CN1CCN(CC(O)COc2ccc(Cl)cc2)CC1 (stereo not given)
inhibition at 10 µM (THP-1): 14% | Activity (J774.A1 [1]): Non-toxic

CC(c1ccccc1)C(O)CN1CCN(CC(O)COCc2ccccc2)CC1 (stereo not given)
inhibition at 10 µM (THP-1): 20% | Activity (J774.A1 [1]): Non-toxic

COc1ccccc1OCC(O)CN1CCN(CC(O)C(C)c2cccc(F)c2)CC1 (stereo not given)
inhibition at 10 µM (THP-1): 52.8% | Activity (J774.A1 [1]): Non-toxic

COc1ccc(OCC(O)CN2CCN(CC(O)C(C)c3cccc(F)c3)CC2)cc1 (stereo not given)
inhibition at 10 µM (THP-1): 37.8% | Activity (J774.A1 [1]): Non-toxic

C[C@@H]1C[C@H]2[C@@H]3CCC4=CC(=O)C=C[C@]4(C)[C@@]3(F)[C@@H](O)C[C@]2(C)[C@@]1(O)C(=O)CO
Activity (Mus musculus [26]): Active | Activity (Mus musculus [27]): Active

Cc1ccccc1OCC(O)CN1CCN(CC(O)C(C)c2cccc(F)c2)CC1 (stereo not given)
inhibition at 10 µM (THP-1): 46.2% | Activity (J774.A1 [1]): Non-toxic

OC(COc1ccc(Br)cc1)CN1CCN(Cc2cc3ccccc3[nH]2)CC1 (stereo not given)
inhibition at 10 µM (THP-1): 84.2% | Activity (J774.A1 [1]): Non-toxic | Kd [4]: 84.8 µM

COc1ccccc1OCC(O)CN1CCN(CC(O)C(C)c2ccccc2)CC1 (stereo not given)
inhibition at 10 µM (THP-1): 27.8% | Activity (J774.A1 [1]): Non-toxic

O=C(CCN1CCN(Cc2ccccc2)CC1)Nc1nc(-c2ccccc2)cs1
concentration at 24 h [28]: 1190 ng/mL
